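Results reflect a 48-hour exposure of cells in 96-well plates to compound at five concentrations. GI50 marks 50% less growth. TGI: concentration producing complete growth inhibition.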
Assays:
Experiment in all cases: DTP human tumour cell line panel, 48 h
HOP-62 NSCLC = tested on: HOP-62 NSCLC
SF-539 CNS = tested on: SF-539 CNS
KM12 colon = tested on: KM12 colon
A549 NSCLC = tested on: A549 NSCLC
OVCAR-5 ovarian = tested on: OVCAR-5 ovarian
UACC-257 melanoma = tested on: UACC-257 melanoma
NCI-H23 lung = tested on: NCI-H23 lung
HCC-2998 colon = tested on: HCC-2998 colon
SK-MEL-5 melanoma = tested on: SK-MEL-5 melanoma
SK-OV-3 ovarian = tested on: SK-OV-3 ovarian

N#C/C(=C\c1cccc(O)c1)C(N)=O
TGI (HOP-62 NSCLC): > 100 µM | TGI (SF-539 CNS): > 100 µM | TGI (KM12 colon): > 100 µM | TGI (A549 NSCLC): > 100 µM | TGI (OVCAR-5 ovarian): > 100 µM | TGI (UACC-257 melanoma): > 100 µM | TGI (NCI-H23 lung): > 100 µM | TGI (HCC-2998 colon): > 100 µM | TGI (SK-MEL-5 melanoma): > 100 µM | TGI (SK-OV-3 ovarian): > 100 µM

Fc1cccc(COc2ccc(Nc3ncnc4cc(-c5ccc[nH]5)sc34)cc2Cl)c1
GI50 (HOP-62 NSCLC): 3.01 µM | TGI (HOP-62 NSCLC): 8.52 µM | GI50 (SF-539 CNS): 0.931 µM | TGI (SF-539 CNS): 4.81 µM | GI50 (KM12 colon): 0.156 µM | TGI (KM12 colon): 5.54 µM | GI50 (A549 NSCLC): 0.789 µM | TGI (A549 NSCLC): 4.8 µM | GI50 (OVCAR-5 ovarian): 2.22 µM | TGI (OVCAR-5 ovarian): 24.9 µM | GI50 (UACC-257 melanoma): 9.38 µM | TGI (UACC-257 melanoma): > 25 µM | GI50 (NCI-H23 lung): 7.22 µM | TGI (NCI-H23 lung): > 25 µM | GI50 (HCC-2998 colon): 0.246 µM | TGI (HCC-2998 colon): 19.2 µM | GI50 (SK-MEL-5 melanoma): 6.01 µM | TGI (SK-MEL-5 melanoma): > 25 µM | GI50 (SK-OV-3 ovarian): 2.41 µM | TGI (SK-OV-3 ovarian): 20.1 µM

COc1cccc(C2c3cc4c(cc3OC(O)(CO)C2C(=O)O)OCO4)c1 (stereo not given) (tested in a mixture with another compound)
TGI (HOP-62 NSCLC): > 100 µM | TGI (SF-539 CNS): > 100 µM | TGI (KM12 colon): > 100 µM | TGI (A549 NSCLC): > 100 µM | TGI (OVCAR-5 ovarian): > 100 µM | TGI (UACC-257 melanoma): > 100 µM | TGI (NCI-H23 lung): > 100 µM | TGI (HCC-2998 colon): > 100 µM | TGI (SK-MEL-5 melanoma): > 100 µM | TGI (SK-OV-3 ovarian): > 100 µM

CC1S(=O)(=O)OCCOS1(=O)=O
TGI (HOP-62 NSCLC): > 100 µM | TGI (SF-539 CNS): > 100 µM | TGI (KM12 colon): > 100 µM | TGI (A549 NSCLC): > 100 µM | TGI (OVCAR-5 ovarian): > 100 µM | TGI (UACC-257 melanoma): > 100 µM | TGI (NCI-H23 lung): > 100 µM | TGI (HCC-2998 colon): > 100 µM | TGI (SK-MEL-5 melanoma): > 100 µM | TGI (SK-OV-3 ovarian): > 100 µM

N[C@H](C(=O)O)[C@H](Cl)CC(=O)O
TGI (HOP-62 NSCLC): > 100 µM | TGI (SF-539 CNS): > 100 µM | TGI (KM12 colon): > 100 µM | TGI (A549 NSCLC): > 100 µM | TGI (OVCAR-5 ovarian): > 100 µM | TGI (UACC-257 melanoma): > 100 µM | TGI (NCI-H23 lung): > 100 µM | TGI (HCC-2998 colon): > 100 µM | TGI (SK-MEL-5 melanoma): > 100 µM | TGI (SK-OV-3 ovarian): > 100 µM

COc1ccc(-c2cn(-c3ccccc3)c(-c3ccccc3)n2)cc1OC
GI50 (HOP-62 NSCLC): 4.44 µM | TGI (HOP-62 NSCLC): 17.9 µM | GI50 (SF-539 CNS): 2.14 µM | TGI (SF-539 CNS): 6.16 µM | GI50 (KM12 colon): 2.4 µM | TGI (KM12 colon): 6.41 µM | GI50 (A549 NSCLC): 3.71 µM | TGI (A549 NSCLC): 16 µM | GI50 (OVCAR-5 ovarian): 7.33 µM | TGI (OVCAR-5 ovarian): 20.9 µM | GI50 (UACC-257 melanoma): 4.84 µM | TGI (UACC-257 melanoma): 16.8 µM | GI50 (NCI-H23 lung): 5.51 µM | TGI (NCI-H23 lung): 25 µM | GI50 (HCC-2998 colon): 6.39 µM | TGI (HCC-2998 colon): 20.7 µM | GI50 (SK-MEL-5 melanoma): 8.03 µM | TGI (SK-MEL-5 melanoma): 20.7 µM | GI50 (SK-OV-3 ovarian): 7.44 µM | TGI (SK-OV-3 ovarian): 20.9 µM

CC(C)(C)c1ccc(S(=O)(=O)N[C@H]2CC[C@H]3[C@@H]4CCc5cc(OS(=O)(=O)O)ccc5[C@H]4CC[C@]23C)cc1
GI50 (HOP-62 NSCLC): 2.87 µM | TGI (HOP-62 NSCLC): 7.81 µM | GI50 (SF-539 CNS): 1.8 µM | TGI (SF-539 CNS): 3.34 µM | GI50 (KM12 colon): 2.08 µM | TGI (KM12 colon): 4.01 µM | GI50 (A549 NSCLC): 2.83 µM | TGI (A549 NSCLC): 10.2 µM | GI50 (OVCAR-5 ovarian): 1.88 µM | TGI (OVCAR-5 ovarian): 3.63 µM | GI50 (UACC-257 melanoma): 2.75 µM | TGI (UACC-257 melanoma): 9.11 µM | GI50 (NCI-H23 lung): 2.6 µM | TGI (NCI-H23 lung): 9.15 µM | GI50 (HCC-2998 colon): 4.09 µM | TGI (HCC-2998 colon): 13.1 µM | GI50 (SK-MEL-5 melanoma): 1.64 µM | TGI (SK-MEL-5 melanoma): 2.99 µM | GI50 (SK-OV-3 ovarian): 2.92 µM | TGI (SK-OV-3 ovarian): 8.54 µM

O=C(CN1CCN(c2ccccc2)CC1)N1CCc2c([nH]c3ccccc23)C1c1cccnc1 (stereo not given)
TGI (HOP-62 NSCLC): > 100 µM | TGI (SF-539 CNS): 57.8 µM | TGI (KM12 colon): > 100 µM | TGI (A549 NSCLC): > 100 µM | TGI (OVCAR-5 ovarian): > 100 µM | TGI (UACC-257 melanoma): > 100 µM | TGI (NCI-H23 lung): > 85.3 µM | TGI (HCC-2998 colon): > 100 µM | TGI (SK-MEL-5 melanoma): > 100 µM | TGI (SK-OV-3 ovarian): > 88.3 µM

CCOC(=O)NN1C(=O)C(=P(c2ccccc2)(c2ccccc2)c2ccccc2)C(C(=O)OCC)=C1C
TGI (HOP-62 NSCLC): > 100 µM | TGI (SF-539 CNS): > 100 µM | TGI (KM12 colon): > 100 µM | TGI (A549 NSCLC): > 100 µM | TGI (OVCAR-5 ovarian): > 100 µM | TGI (UACC-257 melanoma): > 100 µM | TGI (NCI-H23 lung): > 100 µM | TGI (HCC-2998 colon): > 100 µM | TGI (SK-MEL-5 melanoma): > 100 µM | TGI (SK-OV-3 ovarian): > 100 µM

CC(=O)n1c2ccccc2c2nc3nc(Oc4ccc(C)cc4)c4ccccc4c3cc21
TGI (HOP-62 NSCLC): > 100 µM | TGI (SF-539 CNS): > 100 µM | TGI (KM12 colon): > 100 µM | TGI (A549 NSCLC): > 100 µM | TGI (OVCAR-5 ovarian): > 100 µM | TGI (UACC-257 melanoma): > 100 µM | TGI (NCI-H23 lung): 78.7 µM | TGI (HCC-2998 colon): > 100 µM | TGI (SK-MEL-5 melanoma): > 100 µM | TGI (SK-OV-3 ovarian): > 100 µM

C=C(C)C(=O)O[C@H]1[C@H]2[C@H](OC(=O)[C@H]2C)[C@H](O)[C@@H](C)[C@@H]2C=CC(=O)[C@]21C
TGI (HOP-62 NSCLC): 34.1 µM | TGI (SF-539 CNS): 16.5 µM | TGI (KM12 colon): 7.38 µM | TGI (A549 NSCLC): 12.5 µM | TGI (OVCAR-5 ovarian): 54 µM | TGI (UACC-257 melanoma): 7.73 µM | TGI (NCI-H23 lung): 15 µM | TGI (HCC-2998 colon): 5.72 µM | TGI (SK-MEL-5 melanoma): 20.2 µM | TGI (SK-OV-3 ovarian): 18.3 µM

CCCCCCCCCCCCCCCCCCCCCC(=O)Nc1ccn(C2OC(CO)C(O)C2O)c(=O)n1 (stereo not given)
TGI (HOP-62 NSCLC): > 57.6 µM | TGI (SF-539 CNS): > 100 µM | TGI (KM12 colon): > 100 µM | TGI (A549 NSCLC): > 100 µM | TGI (OVCAR-5 ovarian): > 100 µM | TGI (UACC-257 melanoma): > 100 µM | TGI (NCI-H23 lung): > 100 µM | TGI (HCC-2998 colon): > 100 µM | TGI (SK-MEL-5 melanoma): > 100 µM | TGI (SK-OV-3 ovarian): > 100 µM

O=C(CCl)N1c2ccccc2Sc2c1ccc1ccccc21
GI50 (HOP-62 NSCLC): 3.29 µM | TGI (HOP-62 NSCLC): 12.9 µM | GI50 (SF-539 CNS): 2.08 µM | TGI (SF-539 CNS): 4.81 µM | GI50 (KM12 colon): 6.31 µM | TGI (KM12 colon): 20.1 µM | GI50 (A549 NSCLC): 9.52 µM | TGI (A549 NSCLC): 30.3 µM | GI50 (OVCAR-5 ovarian): 2.16 µM | TGI (OVCAR-5 ovarian): 5.07 µM | GI50 (UACC-257 melanoma): 2.24 µM | TGI (UACC-257 melanoma): 5.6 µM | GI50 (NCI-H23 lung): 2.2 µM | TGI (NCI-H23 lung): 5.11 µM | GI50 (HCC-2998 colon): 2.02 µM | TGI (HCC-2998 colon): 3.59 µM | GI50 (SK-MEL-5 melanoma): 1.73 µM | TGI (SK-MEL-5 melanoma): 3.15 µM | GI50 (SK-OV-3 ovarian): 13.4 µM | TGI (SK-OV-3 ovarian): 26.2 µM

CC(=O)OCC1OC(n2ccc(=O)[nH]c2=O)C(OC(C)=O)C1OC(C)=O (stereo not given)
GI50 (HOP-62 NSCLC): > 100 µM | TGI (HOP-62 NSCLC): > 100 µM | GI50 (SF-539 CNS): > 100 µM | TGI (SF-539 CNS): > 100 µM | GI50 (KM12 colon): > 100 µM | TGI (KM12 colon): > 100 µM | GI50 (A549 NSCLC): > 100 µM | TGI (A549 NSCLC): > 100 µM | GI50 (OVCAR-5 ovarian): > 100 µM | TGI (OVCAR-5 ovarian): > 100 µM | GI50 (UACC-257 melanoma): > 100 µM | TGI (UACC-257 melanoma): > 100 µM | GI50 (NCI-H23 lung): > 100 µM | TGI (NCI-H23 lung): > 100 µM | GI50 (HCC-2998 colon): > 100 µM | TGI (HCC-2998 colon): > 100 µM | GI50 (SK-MEL-5 melanoma): > 100 µM | TGI (SK-MEL-5 melanoma): > 100 µM | GI50 (SK-OV-3 ovarian): > 100 µM | TGI (SK-OV-3 ovarian): > 100 µM

C[C@H]1[C@H](C)CC[C@]2(C(=O)O)CC[C@]3(C)C(=CC[C@@H]4[C@@]5(C)C/C(=C/c6cccnc6)[C@H](O)C(C)(C)[C@@H]5CC[C@]43C)[C@H]12
GI50 (HOP-62 NSCLC): 16.4 µM | TGI (HOP-62 NSCLC): 55.6 µM | GI50 (SF-539 CNS): 15.6 µM | TGI (SF-539 CNS): 36.3 µM | GI50 (KM12 colon): 7.61 µM | TGI (KM12 colon): 36.1 µM | GI50 (A549 NSCLC): 5.27 µM | TGI (A549 NSCLC): 62.4 µM | GI50 (OVCAR-5 ovarian): 20.9 µM | TGI (OVCAR-5 ovarian): 64.8 µM | GI50 (UACC-257 melanoma): 21 µM | TGI (UACC-257 melanoma): 81.2 µM | GI50 (NCI-H23 lung): 17.4 µM | TGI (NCI-H23 lung): > 100 µM | GI50 (HCC-2998 colon): 15.7 µM | TGI (HCC-2998 colon): 43.5 µM | GI50 (SK-MEL-5 melanoma): 13.7 µM | TGI (SK-MEL-5 melanoma): 35.7 µM | GI50 (SK-OV-3 ovarian): 19.9 µM | TGI (SK-OV-3 ovarian): > 100 µM

Source: PubChem BioAssay (NCI)
